Results reported in patent US5912372A, “Water-miscible esters of monoglycerides having antimicrobial activity” (priority 1997, dated 1999).

System: human respiratory syncytial virus (RSV)
Assay: RSV inhibition assay in LLC-MK2 cells, PBS as diluent
Format: cell-based
Conditions: compound alone
Experimental: Additional studies were performed to determine the synergistic anti-viral effects of diacetyltartaric acids esters of monoglycerides, lipophilic monoglycerides (MG) and carrageenan. These studies were carried out using […] and PBS as the diluent. The RSV inhibition assay semi-quantitativelydetermines the ability of a test material (antibody or other bioactive compound) to inhibit the infection of monkey kidney cells (LLC-MK2) by human respiratory syncytial virus (RSV). Infected cells are identified using an immunoperoxidase method and counted. The method is performed in a microtiter format and is described briefly below:
LLC-MK2 rhesus monkey kidney cells were obtained from the American Type Culture Collection and were cultured in Eagles modified essential medium (EMEM) supplemented with 10% fetal bovine serum. For RSV inhibition assays, LLC-MK2 cells at 5,000 cells/well were seeded into fibronectin treated microtiter plates and incubated for 3-4 days prior to use in the infectivity reduction assay. […] Plates were then rinsed as above with PBS/CEA, and the number of stained RSV-infected cells (IC) per well determined using an inverted microscope. The number of ICs' in triplicate wells was compared with the number of ICs' of virus control wells (mean of 9) and the percent inhibition (PI) calculated; [PI=1.0-[Mean ICs' per well of test sample/Mean ICs' per well of virus control]. […]

Carrageenan was tested, and the “Enhancement Factor” value was 1.0.
